Assay results: ChEMBL document CHEMBL4483862, “Open-source discovery of chemical leads for next-generation chemoprotective antimalarials” (2018)

Test system: Plasmodium berghei
Assay: Luciferase/luciferin-expressing antifolate-resistant parasites were used to infect a culture of HepG2 cells that were pre-incubated with compounds. Infected hepatocytes emit light due to the luciferase reaction. Assay results are presented as the percent inhibition of light emission compared to control. […]
Format: functional
Settings: sporozoite; for IC90: read-out: LUCIFERASE INFECTION ASSAY - IC90
[1] = read-out: LUCIFERASE INFECTION ASSAY - IC50

SMILES | IC90 [µM] | IC50 [1] [µM] | further results
CC(C)(C)c1ccc(-c2nnc(SCc3ccc([N+](=O)[O-])cc3)n2-c2cccc(C(F)(F)F)c2)cc1 | > 6.44 |  | IC50 (FFLUC_HILL_SLOPE 12, FFLUC_R_SQUARED 0.571, HEPG2TOX_HILL_SLOPE 0.228, HEPG2TOX_R_SQUARED 0.238, read-out: LUCIFERASE INFECTION ASSAY - IC50): > 6.44 µM
Cc1ccc(CN(C)C(=O)NNC(=O)c2ccccc2)c(C)c1 | > 10 | > 10 | 
COc1cncc(-c2cncc(Nc3ccc(C(C)C)cc3)c2)c1 | 5.21 |  | IC50 (PBLUC_HILL_SLOPE 9.07, PBLUC_R_SQUARED 0.477, read-out: LUCIFERASE INFECTION ASSAY - IC50): 4.09 µM
O=C(/C=C/c1cccc(NC(=O)C(F)(F)F)c1)c1cc2ccccc2o1 | 5.08 |  | IC50 (HEPG2TOX_HILL_SLOPE 11, HEPG2TOX_R_SQUARED 0.396, PBLUC_HILL_SLOPE 8.92, PBLUC_R_SQUARED 0.395, read-out: LUCIFERASE INFECTION ASSAY - IC50): 3.97 µM
COC(=O)c1cc(C#N)c(S(C)(=O)=O)s1 | > 13.5 |  | IC50 (HEPG2TOX_HILL_SLOPE 3.75, HEPG2TOX_R_SQUARED 0.937, PBLUC_HILL_SLOPE 11, PBLUC_R_SQUARED 0.132, read-out: LUCIFERASE INFECTION ASSAY - IC50): 12.1 µM
CCOc1cc2c(cc1CNC(=O)c1cccc(NC(=O)c3cccs3)c1)OC(C)C2 (stereo unspecified) | > 10 |  | IC50 (PBLUC_HILL_SLOPE 17.6, PBLUC_R_SQUARED 0.496, read-out: LUCIFERASE INFECTION ASSAY - IC50): 9.52 µM
C=CCN(C(=O)C1CCN(S(=O)(=O)c2cccs2)CC1)c1nc2c(s1)CCCC2 | > 10 | > 10 | 
CCCn1c(NC(=O)c2c(C)nn(Cc3ccccc3)c2Cl)nc2ccccc21 | > 10 |  | IC50 (HEPG2TOX_HILL_SLOPE 8.06, 7.61, HEPG2TOX_R_SQUARED 0.217, 0.871, PBLUC_HILL_SLOPE 3.35, PBLUC_R_SQUARED 0.605, read-out: LUCIFERASE INFECTION ASSAY - IC50): 5.57 µM
COc1ccc(NC(=O)c2cccc(Cl)c2)cc1OCc1cccnc1 | > 10 | > 10 | 
O=C(Nc1ccc2c(c1)OCO2)C1CCN(c2ccnc3cc(Cl)ccc23)CC1 | 8.1 |  | IC50 (HEPG2TOX_HILL_SLOPE 0.967, HEPG2TOX_R_SQUARED 0.942, PBLUC_HILL_SLOPE 2.72, PBLUC_R_SQUARED 0.6, read-out: LUCIFERASE INFECTION ASSAY - IC50): 3.61 µM
COc1ccccc1-c1cnc2c(Nc3ccc(NS(=O)(=O)c4ccc(C)cc4)cc3)nccn12 | > 6.8 | 1.57 | 
Cc1ccc2nc(NC(=O)c3ccc(C(F)(F)F)cc3)c(C(=O)NC3CCCC3)n2c1 | 1.95 | 0.593 | 
O=C(Cc1csc(-c2ccccc2Cl)n1)Nc1cnc2ccccc2c1 | > 10 |  | IC50 (HEPG2TOX_HILL_SLOPE 0.041, HEPG2TOX_R_SQUARED 0.0816, read-out: LUCIFERASE INFECTION ASSAY - IC50): > 10 µM
COc1ccc(F)cc1-c1csc(-c2ccc(NC(=O)c3cccs3)cc2)n1 | > 10 | > 10 | 
Cc1c(C(=O)Nc2ccc(N3CCN(C)CC3)nc2)cnn1-c1ccc(C(F)(F)F)cn1 | > 10 | > 10 | 
CC1CCc2ccccc2N1CC(=O)N(CCC(N)=O)Cc1ccccc1 (stereo unspecified) | > 10 | > 10 | 
CC(C)c1ccc(NC(=O)Nc2ccc3nc(-c4ccco4)nn3c2)cc1 | > 10 | > 10 | 
OCc1cccc(-c2cnc3ccc(-c4cccc(F)c4)nn23)c1 | 4.21 | 3.42 | 
O=C(Nc1nc(-c2ccc(Cl)cc2Cl)cs1)C1CC(=O)N(CCc2ccccc2)C1 (stereo unspecified) | > 10 |  | IC50 (FFLUC_HILL_SLOPE 45.5, FFLUC_R_SQUARED 0.597, PBLUC_HILL_SLOPE 12.9, PBLUC_R_SQUARED 0.652, read-out: LUCIFERASE INFECTION ASSAY - IC50): 9.1 µM
CCOc1ccccc1NC1=C(Cl)C(=O)c2ccccc2C1=O | 9.94 |  | IC50 (HEPG2TOX_HILL_SLOPE 12.2, HEPG2TOX_R_SQUARED 0.715, PBLUC_HILL_SLOPE 2.84, PBLUC_R_SQUARED 0.486, read-out: LUCIFERASE INFECTION ASSAY - IC50): 4.58 µM
Cc1cccc(Nc2ccccc2C(=O)OCC(=O)N2CCNC2=O)c1C | 7.08 |  | IC50 (PBLUC_HILL_SLOPE 113, PBLUC_R_SQUARED 0.339, read-out: LUCIFERASE INFECTION ASSAY - IC50): 6.94 µM
CCOc1ccccc1NC(=O)COC(=O)c1cc(S(=O)(=O)Nc2cccc(C)c2)ccc1C | > 10 | > 10 | 

SMILES | IC90 [µM] | IC50 [1] [µM] | further results
Cc1cc2ncn(CC(O)CN3CCOCC3)c2cc1C (stereo unspecified) | > 10 | > 10 | 
CCN(c1ccc(NC(=O)c2cnccn2)cc1)C(C)C | > 10 |  | IC50 (FFLUC_HILL_SLOPE 1.65, FFLUC_R_SQUARED 0.318, PBLUC_HILL_SLOPE 0.412, PBLUC_R_SQUARED 0.204, read-out: LUCIFERASE INFECTION ASSAY - IC50): > 10 µM
O=S(=O)(c1ccc2oc(Nc3ccc(Cl)c(C(F)(F)F)c3)nc2c1)N1CCOCC1 | > 10 |  | IC50 (HEPG2TOX_HILL_SLOPE 6.56, HEPG2TOX_R_SQUARED 0.393, PBLUC_HILL_SLOPE 2.74, PBLUC_R_SQUARED 0.701, read-out: LUCIFERASE INFECTION ASSAY - IC50): 4.51 µM
Cc1cccc(OC2=C(Cl)C(=O)c3ccccc3C2=O)c1 | > 11 |  | IC50 (HEPG2TOX_HILL_SLOPE 2.98, HEPG2TOX_R_SQUARED 0.916, PBLUC_HILL_SLOPE 1.18, PBLUC_R_SQUARED 0.608, read-out: LUCIFERASE INFECTION ASSAY - IC50): 5.41 µM
CN(C)c1ccc(-c2cc3c(Nc4ccc5c(c4)OCO5)nccc3n2C)cc1 | 3.98 |  | IC50 (HEPG2TOX_HILL_SLOPE 12.1, HEPG2TOX_R_SQUARED 0.137, PBLUC_HILL_SLOPE 13.7, PBLUC_R_SQUARED 0.564, read-out: LUCIFERASE INFECTION ASSAY - IC50): 3.39 µM
Cc1cccc(-c2nc3c(c(SCCN4CCCC4)n2)COC(C)(C)C3)c1 | > 8.6 | > 8.6 | 
O=C1/C(=C2/NC=C(c3ccc(Cl)cc3)O2)Sc2ccccc21 | > 10 |  | IC50 (HEPG2TOX_HILL_SLOPE 0.513, HEPG2TOX_R_SQUARED 0.665, PBLUC_HILL_SLOPE 15.6, PBLUC_R_SQUARED 0.39, read-out: LUCIFERASE INFECTION ASSAY - IC50): 9.58 µM
CCOc1ccc(-n2c(SC(C)C(=O)c3ccc(C(C)C)cc3C(C)C)nnc2-c2c[nH]c3ccccc23)cc1 (stereo unspecified) | > 10 |  | IC50 (FFLUC_HILL_SLOPE 12.2, FFLUC_R_SQUARED 0.489, PBLUC_HILL_SLOPE 1.92, PBLUC_R_SQUARED 0.281, read-out: LUCIFERASE INFECTION ASSAY - IC50): 5.8 µM
c1ccc(-c2cc(NCCCn3ccnc3)nc3ccccc23)cc1 | 8.58 |  | IC50 (PBLUC_HILL_SLOPE 4.01, PBLUC_R_SQUARED 0.225, read-out: LUCIFERASE INFECTION ASSAY - IC50): 4.96 µM
CCCCNC(=O)c1c(NC(=O)c2cccc(C)c2)nc2ccc(C)cn12 | 3.17 |  | IC50 (FFLUC_HILL_SLOPE 134, FFLUC_R_SQUARED 0.564, HEPG2TOX_HILL_SLOPE 2.72, HEPG2TOX_R_SQUARED 0.791, PBLUC_HILL_SLOPE 3.36, PBLUC_R_SQUARED 0.556, read-out: LUCIFERASE INFECTION ASSAY - IC50): 1.65 µM
CCN(CC)CCSc1nc(-c2ccc(C)cc2)nc2c1COC(C)(C)C2 | > 8.56 |  | IC50 (PBLUC_HILL_SLOPE 1.36, PBLUC_R_SQUARED 0.0849, read-out: LUCIFERASE INFECTION ASSAY - IC50): > 8.56 µM
N#CCC(=O)NN1Cc2ccccc2C1=N | > 10 | > 10 | 
CCN(C(=O)CSc1nnc(SCC(=O)N(CC)C2CCCCC2)s1)C1CCCCC1 | > 10 | > 10 | 
Cc1cc2nc(Nc3cccc(Cl)c3)c3ccccc3n2n1 | > 10 |  | IC50 (HEPG2TOX_HILL_SLOPE 10.5, HEPG2TOX_R_SQUARED 0.708, PBLUC_HILL_SLOPE 3.62, PBLUC_R_SQUARED 0.793, read-out: LUCIFERASE INFECTION ASSAY - IC50): 7.73 µM
Cc1ccc2nc(NC(=O)C3CCCCC3)c(C(=O)NC3CCCCC3)n2c1 | > 8.63 |  | IC50 (HEPG2TOX_HILL_SLOPE 0.0875, HEPG2TOX_R_SQUARED 0.133, PBLUC_HILL_SLOPE 0.199, PBLUC_R_SQUARED 0.0366, read-out: LUCIFERASE INFECTION ASSAY - IC50): > 8.63 µM
CN(Cc1nc2ccccc2s1)C(=O)c1cccc(C#N)c1 | > 10 | > 10 | 
CCCNC(=O)c1c(NC(=O)c2ccc(F)cc2)nc2ccc(C)cn12 | > 9.31 |  | IC50 (PBLUC_HILL_SLOPE 1.32, PBLUC_R_SQUARED 0.773, read-out: LUCIFERASE INFECTION ASSAY - IC50): 3.1 µM
Cc1cc(C)c2c(C)c(C(=O)Nc3nc4ccccc4s3)sc2n1 | 1.17 | 0.841 | 
COc1ccc(-c2c(C)nn3c(NCc4ccccn4)cc(C)nc23)cc1OC | 7.49 |  | IC50 (HEPG2TOX_HILL_SLOPE 8.52, HEPG2TOX_R_SQUARED 0.776, PBLUC_HILL_SLOPE 1.28, PBLUC_R_SQUARED 0.799, read-out: LUCIFERASE INFECTION ASSAY - IC50): 1.34 µM
FC(F)(F)c1cc(Nc2nc(C(F)(F)F)cs2)cc(C(F)(F)F)c1 | 3.63 |  | IC50 (HEPG2TOX_HILL_SLOPE 11.5, HEPG2TOX_R_SQUARED 0.969, PBLUC_HILL_SLOPE 12.1, PBLUC_R_SQUARED 0.577, read-out: LUCIFERASE INFECTION ASSAY - IC50): 3.03 µM
CC(Oc1ccc(C(=O)NCc2ccnc(N(C)C)c2)cn1)c1ccccc1 (stereo unspecified) | 6.11 |  | IC50 (PBLUC_HILL_SLOPE 81.7, PBLUC_R_SQUARED 0.538, read-out: LUCIFERASE INFECTION ASSAY - IC50): 5.95 µM
